Measured values taken from US20230059009A1, “INHIBITORS OF LIN28 AND METHODS OF USE THEREOF” (The Regents of the University of California, priority 2019, published 2023).
Entries after “also recorded” stand apart in the source; their conditions may differ.

Tests used:
MCF7 = assay: Cell viability, CTG, MCF7; format: cell-based; conditions: Homo sapiens, MCF7 (Breast)
Experimental: (§1) To measure cell viability, cell titer glow (CTG, Promega CellTiter-Glo 2.0 Assay) and MTT assays (SigmaAldrich, Cell Proliferation Kit I) were performed. Briefly, cells were serum starved overnight prior to seeding in 96-well plates. Following 24 h incubation, cells were treated with increasing concentrations of JGJ compounds for 96 hr. At assay read-out, CellTiter-Glo reagent was added and luminescence was measured after 10-minutes incubation at room temperature. For the MTT assay, MTT labeling reagent was added and incubated for 4 h. Subsequently, medium was removed and 50 μL DMSO was added to solubilize the crystals, and absorbance was measured at 570 nm. Cell viability was calculated as (Sample-Background)/(Control-Background). Current standard of care drugs, Enzalutamide, Palbociclib and Cetuximab were used as comparative controls.

[1] = biological target: T1, LIN28B/pre-let-7a-2 binding (Homo sapiens, UniProt Q6ZN17); assay: FRET assay, EGFP-tagged LIN28B and BHQ-1 labelled pre-let-7a-2; conditions: doses 1.25 uM-20 uM; compared with LN1632
T1 construct: made in house; host or cells: stably transduced HEK cells; used as diluted protein lysate, not purified
T1 sequence (Q6ZN17 1-250): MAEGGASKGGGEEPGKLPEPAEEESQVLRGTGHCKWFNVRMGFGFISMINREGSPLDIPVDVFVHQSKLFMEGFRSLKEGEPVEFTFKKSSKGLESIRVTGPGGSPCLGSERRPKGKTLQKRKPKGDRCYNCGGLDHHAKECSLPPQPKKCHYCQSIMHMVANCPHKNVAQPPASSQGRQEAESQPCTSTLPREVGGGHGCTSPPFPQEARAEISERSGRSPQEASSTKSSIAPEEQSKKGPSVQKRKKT
Experimental: As described herein, compounds of formula (I) and (II) show Lin28/let-7 inhibitory activity in FRET assays in vitro and in LSCs and LSC-like Kasumi-1 cells. FRET assay was performed as previously described (51).
In order to improve binding and inhibitory capacity of a compound to LIN28b, we predicted the binding mode of LN1632 to LIN28B. […] With this model in hand, we synthesized novel compounds with improved binding capacity to Lin28b (JGJ002-JGJ008, FIG. 8). Compounds were screened using a previously described FRET-assay with an EGFP-tagged LIN28B as donor and a BHQ-1 quencher labelled pre-let-7a-2 (pre-let-7a-2-BHQ1) as acceptor (51). Briefly, recombinant LIN28B-EGFP was harvested from stably transduced HEK cells and diluted with binding buffer (300 mM NaCl, 25 mM HEPES pH 7.2, 10 μM ZnCl2, 1% Odyssey Blocking Buffer, 0.05% Tween 20, 0.5 mM TCEP) in order to adjust ideal FRET-quenching signal intensity. Protein lysate and compounds (JGJ001-JGJ008) were pre-incubated in doses ranging from 1.25 uM-20 uM for 20 min in 100 uL diluted protein lysate. Subsequently pre-let-7a-2-BHQ1 was added to the mixture (at 6.25 nM) and EGFP-LIN28B donor emission was measured using a Tecan Spark Plate Reader ([…], excitation at 488 nm, emission read-out at […], 30 flashes/s). […] Increased endogenous let-7 miRNA levels can target a panoply of LCS and cancer stem cell hallmark genes thus inhibiting tumor growth.
To test the structure-activity relationship, 39 LN1632-related analogs (JGJ001-39) were synthesized and their potency and specificity to inhibit LIN28B-RNA binding activity and upregulate mature let-7 miRNA levels was measured. […] The dual luciferase reporter assay was performed as previously described (89).

LSCs = assay: Colony forming capacity (CFC) of iMLL-AF9 LT-HSC derived LSCs; format: cell-based, mouse; conditions: 200 nM Ara-C or 30 μM 1632, 48 h
Text: In addition, Lin28 was independently found to be a key driver in MLL-associated leukemias (56). In order to further characterize the role of Lin28/let-7 in regulating AML, LSC proliferation and therapy resistance in vivo, we used a doxycycline (DOX) inducible, transgenic mouse model for MLL-AF9-driven AML (iMLL-AF9 (57)). In this model, long-term HSC (LT-HSC, Lin^−CD34^−[…] c-Kit^+ CD150^+ CD48^−) derived AML blasts closely mirror an LSC-like phenotype resulting in a particularly aggressive, Cytarabine (Ara-C) resistant AML (57). […] Moreover, relapsed AML cells arising from rLSCs after treatment with Ara-C (100 mg/kg) at d+60 were even further enriched in Lin28b expression (FIG. 2B). Additionally, levels of both, let-7a and let-7b miRNAs, negatively correlated with increased Lin28b in rLSCs (FIG. 2C) (10, 39). Our findings are consistent with papers reporting that increased Lin28 correlates with disease recurrence post chemotherapy in colon and liver cancer stem cells (22, 58).
As Lin28 is overexpressed human AML, LSCs and rLSCs, we sought to determine if genetic Lin28b or pharmacologic Lin28/let-7 inhibition via LN1632 can abrogate proliferation of LSCs and thus overcome their therapy resistance. […]

MOLM-13 (no LIN28B) = assay: Subcutaneous MOLM-13 AML xenograft; format: in vivo; conditions: MOLM-13 subQ in NSG mice, 100 mg/kg IP every other day
Experimental: Thus, we subcutaneously (subQ) implanted THP-1 (high LIN28B) cells or MOLM-13 (no LIN28B) into NSG mice and 12 d later (tumor size=40 mm^2) started administration of 1632 IP at 100 mg/kg every other day.

[2] = system: let-7 target genes / MYC target gene signatures; assay: RNA sequencing in Kasumi-1 cells; format: cell-based, human; conditions: 40 μM or 100 μM LN1632 vs control
Text: To measure the complete degree to which LN1632 regulates gene expression, we carried out RNA sequencing (RNAseq) in LSC-like Kasumi-1 cells. […] Importantly, we confirmed this gene expression pattern in primary AML cells from three relapsed patients (validated for LIN28B overexpression compared to healthy WBM). […] This is important because NFκB1, regulated by let-7 through IL6 (23) is, together with other BCL-2 family members (BAX, BCL2L15 and BMF, FIG. 5A), a well characterized gene associated with unique properties of LSC survival and AML relapse (45, 59, 60). […] We next explored the effect of LN1632 on primary AML cells.
To determine the degree to which LN1632 regulates gene expression, RNA sequencing was performed in human Kasumi-1 AML cells. […] In addition, ingenuity pathway analysis predicted suppression of upstream signaling molecules IL6 and MYC (FIG. 9C).

MYC-driven cancers = assay: Cell viability and cell counting assays in cancer cells; format: cell-based; conditions: TNBC, CRPC, lung and colorectal adenocarcinoma cells
Experimental: To test whether LN1632 and novel analogs thereof affect cancer cell growth, cell viability and cell counting assays in TNBC (FIG. 14B-D), castration resistant prostate cancer cells (CRPC, FIG. 15A-C) and colorectal cancer cells (CRC, FIG. 15A-C) were performed.
as §1

SMILES: CC(=O)Nc1cccc(-c2ccc3ncc(C)n3n2)c1 [JGJ007, N-(3-(3-Methylimidazo[1,2-b]pyridazin-6-yl)phenyl)acetamide]
- IC50 (MCF7): 115 µM
- Inhibition of LIN28B binding to pre-let-7a (FRET signal) [1]: greater inhibition of the LIN28B/pre-let-7a2 binding than the original compound LN1632

SMILES: CC(=O)N(C)c1cccc(-c2ccc3nnc(C)n3n2)c1 [LN1632]
- Colony forming capacity cell numbers (CFCs) of LSCs (LSCs): significantly abrogated CFCs of LSCs
- Tumor growth (MOLM-13 (no LIN28B)): minimal effect on tumor growth; also recorded: significantly reduced tumor growth in THP-1 but not MOLM-13
- Gene expression (RNAseq) [2]: significant downregulation of a panoply of direct let-7 target genes; also recorded: significantly downregulated genes of the HALLMARK_MYC-TARGETS_V1 gene signature
- Proliferation and apoptosis of cancer cells (MYC-driven cancers): reduced proliferation and induced apoptosis preferentially in MYC-driven cancers
